Where no end group is shown, it is not given here.
How the values were obtained:
[1] = system: primary MDA-MB-435 breast carcinoma tumor cell suspensions; experiment: Ex vivo binding of phage to primary 435 tumor cell suspensions; design: species or system Human; conditions: addition of synthetic peptide
Protocol: Several ex vivo selections were performed with 435 tumor cell suspensions prepared from MDA-MB-435 breast carcinoma xenografts grown in nude mice, as described below. Anti-mouse CD31 was used to deplete the tumor cell mixture of blood vessel endothelial cells prior to rescuing phage bound to the CD31-negative cell population. By the third ex vivo round, the phage pool bound a tumor cell suspension approximately 350-fold over control, nonrecombinant phage. The ex vivo preselected phage pool then was subjected to an in vivo selection round by injection into the tail vein of a nude mouse bearing an MDA-MB-435 tumor. Phage were then rescued from harvested xenograft tumor tissue.
Xenografts, tumor cell suspensions and ex vivo selections were performed essentially as follows. Nude Balb/c mice were subcutaneously injected with 1 x 10^6 MDA-MB-435 tumor cells to generate breast carcinoma xenografts. Human MDA-MB-435 breast carcinoma xenograft tumors were harvested 9 to 12 weeks after implantation, and tumor cell suspensions prepared using collagenase (0.5 mg/ml, Sigma).
The suspension was subjected to serial washes with 1% BSA in DME to remove unbound phage. […]

[2] = system: normal tissues; experiment: Localization of fluorescein-labeled peptide in normal tissues after intravenous injection; format: in vivo, mice
Protocol: Several normal tissues also were studied for localization of the CGNKRTRGC (SEQ ID NO: 1) peptide.
Detection of fluorescent peptides and biotin-conjugated tomato lectin was performed as follows. Fluorescein-conjugated peptide CGNKRTRGC (SEQ ID NO: 1) was prepared as described above. The peptide (100 µg in 200 µl of PBS) was injected into the tail vein of mice bearing MDA-MB-435 breast carcinoma tumors. After 10 minutes, biotin-conjugated lycopersicon esculentum (tomato) lectin (100 µg in 200 µl of PBS; Vector; Burlingame, California) was also injected into the tail vein. After 5 minutes, the mouse was perfused through the heart with 4% paraformaldehyde. Tissues were removed and frozen in O.C.T. embedding medium (Tissue-Tek; Torrence, California). Blood vessels were visualized by detecting the tomato lectin with streptavidin-conjugated Alexa 594 (Molecular Probes; Eugene, Oregon). Green staining indicated the presence of peptide SEQ ID NO: 1, while red staining indicated the presence of tomato lectin.

[3] = system: Cultured MDA-MB-435 cells; experiment: Cytotoxicity in cell culture, trypan blue staining; format: cell-based
Protocol: Cultured MDA-MB-435 cells were incubated with a control peptide (CGEKRTRGC; SEQ ID NO: 3) or with CGNKRTRGC (SEQ ID NO: 1) at 37°C for 1, 2 or 4 hours. After staining with trypan blue, which is taken up by cells that are dead or dying, the total number of cells were counted, and the percentage of trypan blue stained cells determined. […] In particular, after four hours incubation, at least 7-fold greater trypan blue uptake was evident in cell cultures incubated with peptide SEQ ID NO: 1 as compared to cultures incubated with control peptide.

[4] = system: MDA-MB-435 human breast carcinoma cell xenografts; experiment: Tumor treatment study; format: in vivo, nude mice; conditions: 67 nmol intravenously twice a week; after about two weeks of treatment; Figure 8
Protocol: A tumor treatment study was performed using MDA-MB-435 human breast carcinoma cell xenografts prepared by subcutaneously injecting 1 x 10^6 cells in 200 µl PBS into nude mice. Mice (five per group) were treated intravenously twice a week with 67 nmol CGNKRTRGC peptide (SEQ ID NO: 1) or with PBS starting four weeks after tumor implantation. Tumor volumes were measured once a week for four weeks.

[5] = system: MDA-MB-435 tumor lymphatic vasculature; experiment: Localization in 435 tumors after intravenous injection, with blood vessel and lymphatic markers
[6] = concentration of 10 µM; cited from earlier work
[7] = system: cultured MDA-MB-435 tumor cells; experiment: Internalization and subcellular localization in cultured MDA-MB-435 cells; format: cell-based, Human; conditions: one to five hours at 37°C; Figure 2
Protocol: A fluorescein-conjugated CGNKRTRGC (SEQ ID NO: 1) peptide was utilized to further analyze cellular internalization and subcellular localization. […] Natl. Acad. Sci. 97:13003 (2000). The fluorescein-conjugated peptides were incubated with cultured MDA-MB-435 tumor cells for one to five hours at 37°C. […] Cultured 435 cells also internalized the CGNKRTRGC (SEQ ID NO: 1) phage, although the phage accumulated in the cytoplasm of the cells.

[8] = system: cultured KRIB cells; experiment: Internalization of fluorescein-labeled peptide by cultured KRIB cells; format: cell-based, human

Substance: CGNKRTRGC [CGNKRTRGC (SEQ ID NO: 1)]
- inhibition of binding of phage displaying the same peptide sequence [1]: inhibited binding
- fluorescence in normal tissues [2]: seen only in the kidney tubuli
- trypan blue uptake relative to cultures incubated with control peptide ([3]; four hours incubation, 37°C, control peptide SEQ ID NO: 3): at least 7 fold
- cytotoxic effect as compared to control peptide SEQ ID NO: 3 ([3]; later time points (1, 2 or 4 hours), Figure 7): significantly enhanced cytotoxic effect
- mean tumor volume compared to mice administered PBS alone [4]: at least several fold less
- accumulation in single cells within the tumor ([5]; fluorescein-labeled peptide): accumulated in VEGFR-3 positive single cells within the tumor
- co-localization with the macrophage marker F4/80 ([5]; mouse, in vivo): lack of co-localization

Substance: D(KLAKLAK)2
- mitochondrial swelling [6]: marked mitochondrial swelling

Substance: fluorescein-conjugated CGNKRTRGC (SEQ ID NO: 1) peptide: Fluorescein-conjugated CGNKRTRGC (SEQ ID NO: 1) peptide (cysteine pairing not given here; also: fluorescein-conjugated)
- uptake and subcellular localization of fluorescein-conjugated peptide [7]: taken up by the 435 cells and translocated into the cell nucleus
- internalization by cultured KRIB cells [8]: internalized
- internalization and nuclear localization in vivo ([5]; Figure 5): internalized and transported into nuclei in vivo
- internalization and nuclear localization in vivo ([5]; Figure 5, listed as fluorescein-conjugated peptide (SEQ ID NO: 1)): accumulated in the nuclei lining the vessel-like structures
- co-localization with blood vessels labeled with biotin-conjugated tomato lectin ([5]; Figures 3A-C): notable lack of co-localization
- co-localization with lymphatic markers VEGFR-3 and LYVE-1 ([5]; intravenously injected, Figure 5): co-localized with VEGFR-3 and LYVE-1 staining in 435 tumor tissue
- blood vessel markers CD31 and Meca-32 on the vessels in which the substance localized ([5]; tail vein injection): negative for the CD31 and Meca-32 blood vessel markers
- localization within 435 tumor ([5]; tail vein injection): localized in vessel-like structures and in individual cells within the tumor

Reference: EP1581790B1, “PEPTIDES THAT HOME TO TUMOR LYMPHATIC VASCULATURE AND METHODS OF USING SAME” (The Burnham Institute, priority 2001, dated 2009)
